Drawing on the supplement of paper PMC10307832, this text covers relative viability for nine cell lines.

What all share (assay): relative viability (nuclei count vs DMSO), 5 days (fraction); higher = more cells survive
Compound in the assay “BX 795 + Crizotinib”: O=C(NCCCNc1nc(Nc2cccc(NC(=O)N3CCCC3)c2)ncc1I)c1cccs1 [BX 795] + C[C@@H](Oc1cc(-c2cnn(C3CCNCC3)c2)cnc1N)c1c(Cl)ccc(F)c1Cl [Crizotinib] (partner 1 µM)
Summed up: (§1)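 Medians of duplicate plates are given as relative viability. That measure is the nuclei count in treated wells divided by the count in vehicle wells. Counts were taken on 4× images of lung cancer cell lines in 1536-well plates, 5 days after pin-tool dosing the day after seeding with one drug alone or a fixed anchor-drug dose plus five library-drug doses (not always all listed) in √10 steps.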

Compound in the assay “BX 795 + Tozasertib”: O=C(NCCCNc1nc(Nc2cccc(NC(=O)N3CCCC3)c2)ncc1I)c1cccs1 [BX 795] + Cc1cc(Nc2cc(N3CCN(C)CC3)nc(Sc3ccc(NC(=O)C4CC4)cc3)n2)n[nH]1 [Tozasertib] (partner 0.1 µM)
Summed up:
as §1

Compound in the assay “BX 795 + Linsitinib”: O=C(NCCCNc1nc(Nc2cccc(NC(=O)N3CCCC3)c2)ncc1I)c1cccs1 [BX 795] + C[C@]1(O)C[C@@H](c2nc(-c3ccc4ccc(-c5ccccc5)nc4c3)c3c(N)nccn32)C1 [Linsitinib] (partner 1 µM)
Summed up: as §1

Compound in the assay “BX 795 + Vorinostat”: O=C(NCCCNc1nc(Nc2cccc(NC(=O)N3CCCC3)c2)ncc1I)c1cccs1 [BX 795] + O=C(CCCCCCC(=O)Nc1ccccc1)NO [Vorinostat] (partner 1 µM)
The essentials:
as §1

Compound in the assay “BX 795 + AZD7762”: O=C(NCCCNc1nc(Nc2cccc(NC(=O)N3CCCC3)c2)ncc1I)c1cccs1 [BX 795] + NC(=O)Nc1cc(-c2cccc(F)c2)sc1C(=O)N[C@H]1CCCNC1 [AZD7762] (partner 0.2 µM)
The essentials:
as §1

On to NCI-H2023, for which the relative viability turned out to be 0.592 in the assay with BX 795 + Crizotinib (first compound 0.04 µM); 0.626 with BX 795 + Crizotinib (first compound 0.1265 µM); 0.269 with BX 795 + Crizotinib (first compound 0.4 µM); 0.282 with BX 795 + Crizotinib (first compound 1.265 µM); 0.316 with BX 795 + Tozasertib (first compound 0.04 µM); 0.295 with BX 795 + Tozasertib (first compound 0.1265 µM). Further, the relative viability with BX 795 + Tozasertib (first compound 0.4 µM) stood at 0.215; with BX 795 + Tozasertib (first compound 1.265 µM) it was 0.139; with BX 795 + Linsitinib (first compound 0.04 µM), 0.572; with BX 795 + Linsitinib (first compound 0.1265 µM) it was 0.71; with BX 795 + Linsitinib (first compound 0.4 µM), 0.445; in the assay with BX 795 + Linsitinib (first compound 1.265 µM) it was 0.314. Besides, the relative viability in the assay with BX 795 + Vorinostat (first compound 0.04 µM) turned out to be 0.471; with BX 795 + Vorinostat (first compound 0.1265 µM), 0.689; with BX 795 + Vorinostat (first compound 0.4 µM), 0.189; with BX 795 + Vorinostat (first compound 1.265 µM), 0.3.

NCI-H2170: the relative viability worked out at 1.17 in the assay with BX 795 + Crizotinib (first compound 0.04 µM); 1.27 with BX 795 + Crizotinib (first compound 0.1265 µM); 1.07 with BX 795 + Crizotinib (first compound 0.4 µM); 1.13 with BX 795 + Crizotinib (first compound 1.265 µM); 0.874 with BX 795 + AZD7762 (first compound 0.04 µM); 1.09 with BX 795 + AZD7762 (first compound 0.1265 µM). In addition, the relative viability came out at 0.812 with BX 795 + AZD7762 (first compound 0.4 µM); 0.791 with BX 795 + AZD7762 (first compound 1.265 µM); 0.724 with BX 795 + Tozasertib (first compound 0.04 µM); 0.731 with BX 795 + Tozasertib (first compound 0.1265 µM); 0.74 with BX 795 + Tozasertib (first compound 0.4 µM); 0.712 in the assay with BX 795 + Tozasertib (first compound 1.265 µM). Moreover, the relative viability stood at 0.942 in the assay with BX 795 + Vorinostat (first compound 0.04 µM), 0.985 in the assay with BX 795 + Vorinostat (first compound 0.1265 µM), 0.824 with BX 795 + Vorinostat (first compound 0.4 µM) and 0.817 in the assay with BX 795 + Vorinostat (first compound 1.265 µM).

For the cell line NCI-H2228, the relative viability worked out at 0.635 with BX 795 + Crizotinib (first compound 0.04 µM); 0.5 with BX 795 + Crizotinib (first compound 0.1265 µM); 0.572 with BX 795 + Crizotinib (first compound 0.4 µM); 0.288 in the assay with BX 795 + Crizotinib (first compound 1.265 µM); 0.283 with BX 795 + Tozasertib (first compound 0.04 µM); 0.247 in the assay with BX 795 + Tozasertib (first compound 0.1265 µM). In addition, the relative viability was found to be 0.303 with BX 795 + Tozasertib (first compound 0.4 µM); 0.217 with BX 795 + Tozasertib (first compound 1.265 µM); 1.25 with BX 795 + Linsitinib (first compound 0.04 µM); 0.643 in the assay with BX 795 + Linsitinib (first compound 0.1265 µM); 0.662 in the assay with BX 795 + Linsitinib (first compound 0.4 µM); 0.474 in the assay with BX 795 + Linsitinib (first compound 1.265 µM). Further, the relative viability was 0.761 with BX 795 + Vorinostat (first compound 0.04 µM), 0.898 with BX 795 + Vorinostat (first compound 0.1265 µM), 0.63 with BX 795 + Vorinostat (first compound 0.4 µM) and 0.556 with BX 795 + Vorinostat (first compound 1.265 µM).

As for NCI-H2342, the relative viability stood at 0.591 with BX 795 + AZD7762 (first compound 0.04 µM); 0.538 with BX 795 + AZD7762 (first compound 0.1265 µM); 0.481 with BX 795 + AZD7762 (first compound 0.4 µM); 0.399 with BX 795 + AZD7762 (first compound 1.265 µM); 0.579 with BX 795 + Tozasertib (first compound 0.04 µM); 0.471 with BX 795 + Tozasertib (first compound 0.1265 µM). Moreover, the relative viability came out at 0.507 with BX 795 + Tozasertib (first compound 0.4 µM); 0.46 with BX 795 + Tozasertib (first compound 1.265 µM); 0.754 with BX 795 + Vorinostat (first compound 0.04 µM); 0.734 in the assay with BX 795 + Vorinostat (first compound 0.1265 µM); 0.651 in the assay with BX 795 + Vorinostat (first compound 0.4 µM); 0.726 in the assay with BX 795 + Vorinostat (first compound 1.265 µM).

With SK-LU-1, the relative viability with BX 795 + Crizotinib (first compound 0.04 µM) turned out to be 0.96; in the assay with BX 795 + Crizotinib (first compound 0.1265 µM), 0.92; with BX 795 + Crizotinib (first compound 0.4 µM) it was 0.459; with BX 795 + Crizotinib (first compound 1.265 µM), 0.498; with BX 795 + Tozasertib (first compound 0.04 µM), 0.312; with BX 795 + Tozasertib (first compound 0.1265 µM) it was 0.356. For the same cell line, the relative viability in the assay with BX 795 + Tozasertib (first compound 1.265 µM) came out at 0.211; in the assay with BX 795 + Linsitinib (first compound 0.04 µM), 1.03; in the assay with BX 795 + Linsitinib (first compound 0.1265 µM), 1.13; in the assay with BX 795 + Linsitinib (first compound 0.4 µM), 0.722; with BX 795 + Linsitinib (first compound 1.265 µM), 0.777; with BX 795 + Vorinostat (first compound 0.04 µM), 0.674. Also, the relative viability was 0.764 with BX 795 + Vorinostat (first compound 0.1265 µM), 0.595 with BX 795 + Vorinostat (first compound 0.4 µM) and 0.593 in the assay with BX 795 + Vorinostat (first compound 1.265 µM).

In the case of SK-MES-1, the relative viability with BX 795 + Crizotinib (first compound 0.04 µM) was determined as 1.13; with BX 795 + Crizotinib (first compound 0.1265 µM), 0.939; with BX 795 + Crizotinib (first compound 0.4 µM), 0.836; with BX 795 + Crizotinib (first compound 1.265 µM), 0.78; in the assay with BX 795 + Tozasertib (first compound 0.04 µM) it was 0.883; with BX 795 + Tozasertib (first compound 0.1265 µM), 0.832. Moreover, the relative viability amounted to 0.905 with BX 795 + Tozasertib (first compound 0.4 µM); 0.223 with BX 795 + Tozasertib (first compound 1.265 µM); 1.11 in the assay with BX 795 + Linsitinib (first compound 0.04 µM); 0.985 in the assay with BX 795 + Linsitinib (first compound 0.1265 µM); 0.992 in the assay with BX 795 + Linsitinib (first compound 0.4 µM); 0.745 with BX 795 + Linsitinib (first compound 1.265 µM). In addition, the relative viability with BX 795 + Vorinostat (first compound 0.04 µM) amounted to 1.1; in the assay with BX 795 + Vorinostat (first compound 0.1265 µM), 1.11; with BX 795 + Vorinostat (first compound 0.4 µM) it was 0.545; with BX 795 + Vorinostat (first compound 1.265 µM), 0.748.

As to SW 900, the relative viability with BX 795 + AZD7762 (first compound 0.04 µM) was determined as 0.55; in the assay with BX 795 + AZD7762 (first compound 0.4 µM), 0.619; in the assay with BX 795 + AZD7762 (first compound 1.265 µM) it was 0.633; with BX 795 + Tozasertib (first compound 0.04 µM), 0.571; with BX 795 + Tozasertib (first compound 0.1265 µM) it was 0.549; in the assay with BX 795 + Tozasertib (first compound 0.4 µM) it was 0.657. In addition, the relative viability with BX 795 + Tozasertib (first compound 1.265 µM) was determined as 0.233; with BX 795 + Vorinostat (first compound 0.04 µM), 0.482; with BX 795 + Vorinostat (first compound 0.4 µM) it was 0.611; with BX 795 + Vorinostat (first compound 1.265 µM), 0.604.

On to SW 1573, for which the relative viability in the assay with BX 795 + Crizotinib (first compound 0.04 µM) is 0.832; with BX 795 + Crizotinib (first compound 0.1265 µM) it was 0.887; with BX 795 + Crizotinib (first compound 0.4 µM), 0.584; with BX 795 + Crizotinib (first compound 1.265 µM) it was 0.667; in the assay with BX 795 + Tozasertib (first compound 0.04 µM), 0.209; with BX 795 + Tozasertib (first compound 0.1265 µM), 0.185. Further, the relative viability amounted to 0.142 with BX 795 + Tozasertib (first compound 0.4 µM); 0.155 with BX 795 + Tozasertib (first compound 1.265 µM); 0.962 with BX 795 + Linsitinib (first compound 0.04 µM); 0.873 with BX 795 + Linsitinib (first compound 0.1265 µM); 1.02 with BX 795 + Linsitinib (first compound 0.4 µM); 0.629 in the assay with BX 795 + Linsitinib (first compound 1.265 µM). Besides, the relative viability with BX 795 + Vorinostat (first compound 0.04 µM) worked out at 0.862; in the assay with BX 795 + Vorinostat (first compound 0.1265 µM), 0.875; in the assay with BX 795 + Vorinostat (first compound 0.4 µM), 0.558; in the assay with BX 795 + Vorinostat (first compound 1.265 µM) it was 0.276.

In the case of UMC-11, the relative viability with BX 795 + Crizotinib (first compound 0.04 µM) stood at 0.608; with BX 795 + Crizotinib (first compound 0.1265 µM), 0.584; with BX 795 + Crizotinib (first compound 0.4 µM) it was 0.322; in the assay with BX 795 + Crizotinib (first compound 1.265 µM), 0.0915; with BX 795 + Tozasertib (first compound 0.04 µM) it was 0.189; with BX 795 + Tozasertib (first compound 0.1265 µM), 0.195. For the same cell line, the relative viability in the assay with BX 795 + Tozasertib (first compound 0.4 µM) was determined as 0.185; in the assay with BX 795 + Tozasertib (first compound 1.265 µM), 0.22; with BX 795 + Linsitinib (first compound 0.04 µM), 0.751; with BX 795 + Linsitinib (first compound 0.1265 µM), 1.02; in the assay with BX 795 + Linsitinib (first compound 0.4 µM), 0.95; with BX 795 + Linsitinib (first compound 1.265 µM), 0.348. The relative viability in the assay with BX 795 + Vorinostat (first compound 0.04 µM) was found to be 0.422; with BX 795 + Vorinostat (first compound 0.1265 µM), 0.308; with BX 795 + Vorinostat (first compound 0.4 µM), 0.354; in the assay with BX 795 + Vorinostat (first compound 1.265 µM), 0.348.
